Here are results for eleven compounds from ChEMBL document CHEMBL1201862, “PubChem BioAssay data set” (2004).

The structures appear in SMILES notation.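 Five compound concentrations were applied to cells in 96-well plates for 48 hours; endpoints were derived by simple linear interpolation of the resulting dose-response curve. At the GI50, growth is halved.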 The source made the active and inactive calls. No stated cut-off is given here; in the data, active = GI50 up to about 1.1 µM and inactive = higher.

Among the test systems are DLD-1; M14; SNB-75; A498; SR; NCI-H226; Malme-3M; UACC-62; MCF7; IGROV-1; HOP-92; Hs-578T; SK-MEL-5; SK-MEL-2; SF-268; CCRF-CEM; CAKI-1; SN12C; UO-31; MDA-N.
Common to all, as to assay: DTP human tumour cell line panel, 48 h

On to `COc1ccc(CC2C(=O)NC(C)C(=O)N(C)C3C(=O)N(C)C(Cc4ccc(O)c(c4)Oc4ccc(cc4)C3O)C(=O)NC(C)C(=O)NC(C)C(=O)N2C)cc1` (centres undefined), for which the GI50 (usually the concentration that inhibits growth by half) in the test on DLD-1 was 0.321 µM (active); in the test on M14, 0.0275 µM (active); with SNB-75, 0.0137 µM (active); in the test on A498, 0.022 µM (active); in the test on SR, < 0.01 µM (active); in the test on NCI-H226 it was 0.00459 µM (active). The GI50 is 0.0171 µM (active) in the test with Malme-3M; 0.0138 µM (active) in the test on UACC-62; 0.0125 µM (active) in the test on MCF7; 0.0162 µM (active) in the test on IGROV-1; 0.0137 µM (active) with HOP-92; 0.01 µM (active) in the test with Hs-578T. In addition, the GI50 with SK-MEL-5 is 0.00746 µM (active); with SK-MEL-2, 0.0125 µM (active); with SF-268, 0.0125 µM (active); in the test on CCRF-CEM, 0.0013 µM (active); in the test on CAKI-1, 0.0512 µM (active); in the test with SN12C, 0.018 µM (active). Besides, the GI50 with UO-31 was 0.824 µM (active).

Consider `Cc1cc(N(CCC#N)CCC#N)ccc1/C(Sc1ccccc1)=C(\NC(=O)/C=C/c1ccccc1)C(=O)Sc1ccccc1`, for which the GI50 in the test with DLD-1 is 1.73 µM (inactive); with M14, 1.82 µM (inactive); in the test with SNB-75, 2.13 µM (inactive); in the test on A498, 4.06 µM (inactive); with SR, 0.665 µM (active); with NCI-H226, 2.56 µM (inactive). Moreover, the GI50 was 8.28 µM (inactive) with Malme-3M; 2.82 µM (inactive) in the test with UACC-62; 0.805 µM (active) in the test on IGROV-1; 2.92 µM (inactive) in the test on HOP-92; 2.77 µM (inactive) in the test with SK-MEL-5; 3.42 µM (inactive) in the test on SK-MEL-2. For the same compound, the GI50 in the test on SF-268 is 0.565 µM (active); in the test on CCRF-CEM, 0.271 µM (active); in the test with CAKI-1, 2.05 µM (inactive); with SN12C, 1.7 µM (inactive); in the test with UO-31, 0.731 µM (active).

On to `O=C1C2=C(N[C@@H](c3ccccc3)[C@H](c3ccccc3)N2)C(=O)c2ccccc21`, for which the GI50 in the test with DLD-1 is > 100 µM (inactive); in the test with M14, > 100 µM (inactive); in the test with SNB-75 it was 51.8 µM (inactive); in the test on A498 it was > 100 µM (inactive); with SR it was > 100 µM (inactive); with NCI-H226, > 100 µM (inactive). Further, the GI50 in the test with Malme-3M was > 100 µM (inactive); with UACC-62, > 100 µM (inactive); in the test with IGROV-1 it was > 100 µM (inactive); in the test on HOP-92 it was 8.05 µM (inactive); with SK-MEL-5, > 100 µM (inactive); with SK-MEL-2, > 100 µM (inactive). Moreover, the GI50 in the test with SF-268, in the test on CCRF-CEM, in the test on CAKI-1, with SN12C and with UO-31 was > 100 µM (inactive) throughout.

With `NC(=S)N/N=C(/CCN1CCCC1)CC(C1=C(O)C2=CCCCC2OC1=O)c1ccccc1` (centres undefined), the GI50 is > 100 µM (inactive) with DLD-1; > 100 µM (inactive) with M14; > 100 µM (inactive) in the test with SNB-75; > 100 µM (inactive) with A498; 70 µM (inactive) in the test on SR; > 100 µM (inactive) in the test with NCI-H226. For the same compound, the GI50 in the test with Malme-3M is > 100 µM (inactive); with UACC-62, > 100 µM (inactive); in the test on IGROV-1, > 100 µM (inactive); with HOP-92, 32.3 µM (inactive); with SK-MEL-5 it was > 100 µM (inactive); in the test on SK-MEL-2 it was > 100 µM (inactive). For the same compound, the GI50 in the test with SF-268 was > 100 µM (inactive); in the test with CCRF-CEM, 80 µM (inactive); with CAKI-1, > 100 µM (inactive); in the test on SN12C, > 100 µM (inactive); with UO-31 it was > 100 µM (inactive).

Regarding `CCOC(=O)Cn1c(=O)[nH]c(=O)c2c1ncn2Cc1ccccc1`, the GI50 with DLD-1, in the test with M14, in the test with SNB-75, with A498, in the test with SR and in the test on NCI-H226 was > 100 µM (inactive) throughout. The GI50 in the test on Malme-3M, with UACC-62, with IGROV-1, with HOP-92, with SK-MEL-5 and with SK-MEL-2 was > 100 µM (inactive) in each case. In addition, the GI50 in the test with SF-268, in the test on CCRF-CEM, in the test with CAKI-1, in the test with SN12C and with UO-31 was > 100 µM (inactive) in each case.

With `O=C(Nc1ccc([N+](=O)[O-])cc1[N+](=O)[O-])C(=O)C(C(=O)c1ccc(Cl)c(Cl)c1)C1OC(=O)c2ccccc21` (centres undefined), the GI50 in the test on DLD-1 was 19.1 µM (inactive); in the test with M14, > 10 µM (inactive); with SNB-75 it was > 100 µM (inactive); with A498, 21.4 µM (inactive); in the test with SR, 26.5 µM (inactive); in the test on NCI-H226 it was 12.4 µM (inactive). Moreover, the GI50 was 26.3 µM (inactive) in the test on Malme-3M; 16.3 µM (inactive) in the test on UACC-62; 22.2 µM (inactive) in the test with IGROV-1; 1.26 µM (inactive) in the test with HOP-92; > 10 µM (inactive) in the test on SK-MEL-2; 25.3 µM (inactive) in the test with SF-268. Besides, the GI50 with CCRF-CEM is 22.6 µM (inactive); in the test with CAKI-1 it was 38 µM (inactive); in the test with SN12C, 24.1 µM (inactive); with UO-31, 26.3 µM (inactive).

For the compound `Nc1c(-c2nc3ccccc3[nH]2)sc(=S)n1-c1ccccc1`, the GI50 in the test on DLD-1 is 60.7 µM (inactive); in the test on M14, > 100 µM (inactive); with SNB-75, 44.8 µM (inactive); with A498, > 100 µM (inactive); with SR, 30.3 µM (inactive); with NCI-H226, > 100 µM (inactive). For the same compound, the GI50 with Malme-3M is 70.8 µM (inactive); in the test with UACC-62, 13.5 µM (inactive); in the test on IGROV-1 it was > 100 µM (inactive); in the test with HOP-92, > 100 µM (inactive); with SK-MEL-5, > 100 µM (inactive); in the test on SK-MEL-2, > 100 µM (inactive). Further, the GI50 with SF-268 was > 100 µM (inactive); in the test on CCRF-CEM, 26.1 µM (inactive); in the test on CAKI-1 it was > 100 µM (inactive); in the test on SN12C, > 100 µM (inactive); in the test with UO-31 it was > 100 µM (inactive).

On to `C/C=N\N1C(=O)c2ccccc2C1=O`, for which the GI50 in the test on DLD-1, with M14, in the test with SNB-75, in the test on A498, in the test on SR and in the test with NCI-H226 was > 100 µM (inactive) throughout. The GI50 in the test on Malme-3M, in the test on UACC-62, with IGROV-1, in the test on HOP-92, in the test on SK-MEL-5 and in the test on SK-MEL-2 was > 100 µM (inactive) each time. Also, the GI50 in the test on SF-268, with CCRF-CEM, with CAKI-1, in the test with SN12C and with UO-31 was > 100 µM (inactive) in each case.

With `CC(=O)Nc1[nH]n(C)c(=O)c1-c1nnc(C)s1`, the GI50 in the test on DLD-1, with M14, in the test with SNB-75, in the test with A498, in the test with SR and in the test with NCI-H226 was > 100 µM (inactive) in each case. Moreover, the GI50 in the test with Malme-3M, in the test on IGROV-1, with HOP-92, with SK-MEL-5, in the test on SK-MEL-2 and with SF-268 was > 100 µM (inactive) in each case. For the same compound, the GI50 in the test with CCRF-CEM, in the test on CAKI-1, with SN12C and with UO-31 was > 100 µM (inactive) each time.

Take `CNC(=O)OCc1nc([S+](C)[O-])n(C)c1COC(=O)NC` (centres undefined): the GI50 in the test with DLD-1 is > 100 µM (inactive); in the test on M14, > 29.1 µM (inactive); in the test with SNB-75, > 100 µM (inactive); in the test with A498 it was 38.7 µM (inactive); with SR, > 100 µM (inactive); in the test on NCI-H226, > 100 µM (inactive). Besides, the GI50 was > 100 µM (inactive) in the test on Malme-3M; > 49.1 µM (inactive) in the test with UACC-62; > 100 µM (inactive) in the test on MCF7; > 50.4 µM (inactive) with IGROV-1; > 48.4 µM (inactive) in the test with HOP-92; > 46.5 µM (inactive) with SK-MEL-5. The GI50 in the test with SK-MEL-2 was > 100 µM (inactive); in the test with SF-268, > 100 µM (inactive); in the test on CCRF-CEM, > 100 µM (inactive); in the test on CAKI-1 it was > 58.7 µM (inactive); with SN12C, > 100 µM (inactive); in the test with UO-31, > 100 µM (inactive).

Turning to `Cc1cn([C@H]2C[C@H](N=[N+]=[N-])[C@@H](CO)O2)c(=O)[nH]c1=O` [ZIDOVUDINE], the GI50 is > 100 µM (inactive) in the test on DLD-1; 655 µM (inactive) in the test with MDA-N; > 100 µM (inactive) with M14; 66.2 µM (inactive) with A498; 177 µM (inactive) in the test on SR; > 100 µM (inactive) with NCI-H226. Moreover, the GI50 is > 100 µM (inactive) in the test on Malme-3M; 239 µM (inactive) in the test with UACC-62; 66.4 µM (inactive) in the test on MCF7; > 100 µM (inactive) in the test with IGROV-1; > 100 µM (inactive) in the test with HOP-92; 885 µM (inactive) with Hs-578T. The GI50 with SK-MEL-5 was 118 µM (inactive); in the test with SK-MEL-2, > 100 µM (inactive); in the test with CCRF-CEM, 288 µM (inactive); with CAKI-1, > 97.1 µM (inactive); in the test with SN12C, > 100 µM (inactive); in the test with UO-31 it was > 100 µM (inactive).
